# Like-named read-outs stand apart in the source and are kept apart here.
# Legend:
# CDK6/CycD3 = CDK6/CycD3 (Homo sapiens, UniProt Q00534)
# Procedure: (§1) This was completed utilizing one of two assays depending on the kinase being examined.
# (§2) A solution of IMAP binding reagent (IMAP Screening Express kit; Molecular Devices) (60 μL) was added to each well and incubated for 30 minutes.
# (§3) A solution of termination buffer (QuickScout Screening assist MSA; Carna Biosciences) (60 μL) was added to each well. The entire reaction mixture was then applied to a LabChip3000 system (Caliper Life Science) and the product and substrate peptide peaks were separated and quantified.
# (§4) The assay utilized was identical to that of the single point inhibitory activity determination (MSA) but run in dose response. […] A solution of termination buffer (QuickScout Screening assist MSA; Carna Biosciences) (60 μL) was added to each well. The entire reaction mixture was then applied to a LabChip3000 system (Caliper Life Science) and the product and substrate peptide peaks were separated and quantified.
# LOK = LOK (Homo sapiens, UniProt O94804)
# Procedure: as §1, §2, §3
# DLK_Cascade = DLK_Cascade (Homo sapiens, UniProt Q12852)
# Procedure: as §1, §2, §3, §4
# MAP4K2 = MAP4K2 (Homo sapiens, UniProt Q12851)
# Procedure: as §1, §2, §3, §4
# PDGFRβ = PDGFRβ (Homo sapiens, UniProt P09619)
# Procedure: as §1, §2, §3, §4
# PAK6 = PAK6 (Homo sapiens, UniProt Q9NQU5)
# Procedure: as §1, §2, §3, §4
# MST2 = MST2 (Homo sapiens, UniProt Q13188)
# Procedure: as §1, §2, §3
# BLK = BLK (Homo sapiens, UniProt P51451)
# Procedure: as §1, §2, §3, §4
# CGK2 = CGK2 (Homo sapiens, UniProt Q13237)
# Procedure: as §1, §2, §3, §4
# PAK5 = PAK5 (Homo sapiens, UniProt Q9P286)
# Chain of PAK5 (Q9P286 whole entry): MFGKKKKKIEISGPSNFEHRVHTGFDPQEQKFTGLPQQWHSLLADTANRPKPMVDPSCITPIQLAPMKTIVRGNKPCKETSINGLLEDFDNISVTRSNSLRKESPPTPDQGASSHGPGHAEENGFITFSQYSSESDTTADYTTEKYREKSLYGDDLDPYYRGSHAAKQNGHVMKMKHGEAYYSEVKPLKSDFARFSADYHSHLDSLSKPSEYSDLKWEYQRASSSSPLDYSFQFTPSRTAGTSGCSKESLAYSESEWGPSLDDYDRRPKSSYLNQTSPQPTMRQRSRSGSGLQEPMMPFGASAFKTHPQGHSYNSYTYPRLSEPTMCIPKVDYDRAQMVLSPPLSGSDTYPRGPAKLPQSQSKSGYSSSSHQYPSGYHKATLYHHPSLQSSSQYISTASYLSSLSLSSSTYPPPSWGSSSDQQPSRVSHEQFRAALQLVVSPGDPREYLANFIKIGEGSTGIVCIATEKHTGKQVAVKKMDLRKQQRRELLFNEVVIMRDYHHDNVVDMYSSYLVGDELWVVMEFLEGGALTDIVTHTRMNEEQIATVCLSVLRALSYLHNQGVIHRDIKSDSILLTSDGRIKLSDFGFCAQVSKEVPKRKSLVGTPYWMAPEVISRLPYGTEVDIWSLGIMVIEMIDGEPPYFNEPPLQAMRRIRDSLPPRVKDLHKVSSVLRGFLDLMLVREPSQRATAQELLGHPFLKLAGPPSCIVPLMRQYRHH
# Procedure: as §1, §2, §3
# TXK = TXK (Homo sapiens, UniProt P42681)
# Procedure: as §1, §2, §3, §4
# CDK5/p25 = CDK5/p25 (Homo sapiens, UniProt Q00535)
# Chain of CDK5/p25 (Q00535 whole entry, species assumed): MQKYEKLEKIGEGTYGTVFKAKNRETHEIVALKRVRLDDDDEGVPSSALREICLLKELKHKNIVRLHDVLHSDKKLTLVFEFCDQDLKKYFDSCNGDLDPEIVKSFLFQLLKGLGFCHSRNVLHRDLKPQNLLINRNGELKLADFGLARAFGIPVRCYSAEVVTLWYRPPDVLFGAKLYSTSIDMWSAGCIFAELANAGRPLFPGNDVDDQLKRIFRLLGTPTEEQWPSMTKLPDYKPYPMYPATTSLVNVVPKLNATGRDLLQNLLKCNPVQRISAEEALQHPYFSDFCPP
# Chain of CDK5/p25 (Q15078 99-307 partner limits assumed, species assumed): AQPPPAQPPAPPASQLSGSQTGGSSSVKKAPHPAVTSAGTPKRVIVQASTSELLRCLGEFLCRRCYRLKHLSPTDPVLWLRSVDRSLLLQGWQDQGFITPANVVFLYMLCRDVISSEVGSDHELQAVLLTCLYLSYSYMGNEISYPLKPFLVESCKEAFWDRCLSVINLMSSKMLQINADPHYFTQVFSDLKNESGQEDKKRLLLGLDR
# Procedure: as §1, §2, §3, §4
# ROCK2 = ROCK2 (Homo sapiens, UniProt O75116)
# Procedure: as §1, §2, §3
# DDR2 = DDR2 (Homo sapiens, UniProt Q16832)
# Chain of DDR2 (Q16832 22-855): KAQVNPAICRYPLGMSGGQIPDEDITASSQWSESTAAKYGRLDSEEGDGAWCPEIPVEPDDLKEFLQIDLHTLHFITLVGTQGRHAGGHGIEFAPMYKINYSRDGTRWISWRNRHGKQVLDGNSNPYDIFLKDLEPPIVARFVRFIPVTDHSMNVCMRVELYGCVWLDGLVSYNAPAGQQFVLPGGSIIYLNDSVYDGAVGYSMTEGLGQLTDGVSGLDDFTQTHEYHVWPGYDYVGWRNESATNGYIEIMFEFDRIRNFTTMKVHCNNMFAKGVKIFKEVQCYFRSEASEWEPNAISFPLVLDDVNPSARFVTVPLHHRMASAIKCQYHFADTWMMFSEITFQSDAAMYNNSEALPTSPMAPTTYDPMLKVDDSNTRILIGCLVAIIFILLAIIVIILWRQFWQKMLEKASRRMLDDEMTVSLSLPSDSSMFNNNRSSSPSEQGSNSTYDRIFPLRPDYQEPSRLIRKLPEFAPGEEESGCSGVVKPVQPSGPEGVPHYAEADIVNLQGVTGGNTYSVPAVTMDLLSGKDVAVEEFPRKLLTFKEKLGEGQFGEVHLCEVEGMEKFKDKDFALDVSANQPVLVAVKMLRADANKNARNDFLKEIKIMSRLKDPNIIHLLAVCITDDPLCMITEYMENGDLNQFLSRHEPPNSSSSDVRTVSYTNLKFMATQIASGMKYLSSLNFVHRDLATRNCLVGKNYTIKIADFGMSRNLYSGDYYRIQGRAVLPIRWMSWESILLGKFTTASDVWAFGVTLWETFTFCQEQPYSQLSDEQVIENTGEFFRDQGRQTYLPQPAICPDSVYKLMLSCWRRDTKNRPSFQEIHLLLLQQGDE
# ROS = ROS (Homo sapiens, UniProt P08922)
# Procedure: as §1, §2, §3, §4
# MLK1_Cascade = MLK1_Cascade (Homo sapiens, UniProt P80192)
# Procedure: as §1, §3
# The assay utilized was identical to that of the single point inhibitory activity determination (MSA) but run in dose response.
# RSK1 = RSK1 (Homo sapiens, UniProt Q15418)
# Procedure: as §1, §2, §3
# PDK1 = PDK1 (Homo sapiens, UniProt O15530)
# Procedure: as §1, §2, §3, §4
# KIT(V560G) = KIT(V560G) (Homo sapiens, UniProt P10721, V560G)
# Procedure: as §1, §2, §3, §4
# FLT4 = FLT4 (Homo sapiens, UniProt P35916)
# Chain of FLT4 (P35916 25-1363): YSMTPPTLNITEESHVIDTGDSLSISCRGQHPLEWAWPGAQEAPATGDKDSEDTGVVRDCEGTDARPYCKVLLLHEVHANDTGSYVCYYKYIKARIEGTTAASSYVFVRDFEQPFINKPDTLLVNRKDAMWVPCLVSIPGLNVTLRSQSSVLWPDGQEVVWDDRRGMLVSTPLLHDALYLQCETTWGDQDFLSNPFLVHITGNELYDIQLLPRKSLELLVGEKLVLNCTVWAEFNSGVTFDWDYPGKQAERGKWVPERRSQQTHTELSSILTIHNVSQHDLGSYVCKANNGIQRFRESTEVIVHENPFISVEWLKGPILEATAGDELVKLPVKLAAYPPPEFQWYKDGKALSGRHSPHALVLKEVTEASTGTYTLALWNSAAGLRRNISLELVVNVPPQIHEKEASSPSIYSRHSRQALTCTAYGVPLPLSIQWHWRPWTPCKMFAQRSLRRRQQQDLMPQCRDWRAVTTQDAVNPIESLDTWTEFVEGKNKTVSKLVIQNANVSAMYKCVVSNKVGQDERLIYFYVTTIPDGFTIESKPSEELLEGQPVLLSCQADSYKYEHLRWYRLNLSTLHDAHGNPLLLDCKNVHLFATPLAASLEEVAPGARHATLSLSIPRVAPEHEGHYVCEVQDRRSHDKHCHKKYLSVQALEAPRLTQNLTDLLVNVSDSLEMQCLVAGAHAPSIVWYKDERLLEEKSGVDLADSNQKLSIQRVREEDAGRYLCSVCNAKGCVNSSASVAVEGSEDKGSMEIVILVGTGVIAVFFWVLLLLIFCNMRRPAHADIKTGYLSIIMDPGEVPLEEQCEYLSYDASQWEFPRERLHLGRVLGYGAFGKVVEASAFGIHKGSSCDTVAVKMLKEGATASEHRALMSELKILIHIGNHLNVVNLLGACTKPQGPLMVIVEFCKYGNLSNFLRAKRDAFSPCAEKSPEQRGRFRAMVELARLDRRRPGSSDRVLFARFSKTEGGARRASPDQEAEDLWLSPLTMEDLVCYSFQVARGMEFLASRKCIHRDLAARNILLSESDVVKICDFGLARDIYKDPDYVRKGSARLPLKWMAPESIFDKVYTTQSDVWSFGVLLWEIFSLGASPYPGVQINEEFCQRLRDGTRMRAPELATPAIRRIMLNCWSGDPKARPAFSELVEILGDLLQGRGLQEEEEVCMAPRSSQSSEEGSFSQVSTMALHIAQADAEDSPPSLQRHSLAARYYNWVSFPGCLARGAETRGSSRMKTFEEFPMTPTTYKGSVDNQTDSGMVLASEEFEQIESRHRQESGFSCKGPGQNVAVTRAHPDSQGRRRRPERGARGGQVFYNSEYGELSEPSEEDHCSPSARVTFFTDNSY
# Procedure: as §1, §2, §3, §4
# PKCη = PKCη (Homo sapiens, UniProt P24723)
# Procedure: as §1, §2, §3, §4
# PIM3 = PIM3 (Homo sapiens, UniProt Q86V86)
# Procedure: as §1, §2, §3
# MAP2K4_Cascade = MAP2K4_Cascade (Homo sapiens, UniProt P45985)
# Procedure: as §1, §2, §3, §4
# CRIK = CRIK (Homo sapiens, UniProt O14578)
# Procedure: as §1, §2, §3
# PAK1 = PAK1 (Homo sapiens, UniProt Q13153)
# Procedure: as §2, §3, §4
# EGFR(d746-750) = EGFR(d746-750) (Homo sapiens, UniProt P00533, DEL746-750)
# Procedure: as §1, §2, §3
# SRM = SRM (Homo sapiens, UniProt Q9H3Y6)
# Procedure: as §1, §2, §3, §4
# p38α = p38α (Homo sapiens, UniProt Q16539)
# Procedure: as §1, §2, §3, §4
# MARK4 = MARK4 (Homo sapiens, UniProt Q96L34)
# Procedure: as §1, §2, §3, §4
# PDGFRα(T674I) = PDGFRα(T674I) (Homo sapiens, UniProt P16234, T674I)
# Procedure: as §1, §2, §3, §4
# LYNa = LYNa (Homo sapiens, UniProt P07948)
# Procedure: as §1, §2, §3
# JNK1 = JNK1 (Homo sapiens, UniProt P45983)
# Procedure: as §1, §2, §3, §4
# JAK3 = JAK3 (Homo sapiens, UniProt P52333)
# Procedure: as §1, §2, §3, §4
# FGFR1 = FGFR1 (Homo sapiens, UniProt P11362)
# Procedure: as §1, §2, §3, §4
# MARK3 = MARK3 (Homo sapiens, UniProt P27448)
# Procedure: as §1, §2, §3, §4
# NEK1 = NEK1 (Homo sapiens, UniProt Q96PY6)
# Procedure: as §1, §2, §3
# CK1γ3 = CK1γ3 (Homo sapiens, UniProt Q9Y6M4)
# Procedure: as §1, §2, §3, §4
# SGK3 = SGK3 (Homo sapiens, UniProt Q96BR1)
# Procedure: as §1, §2, §3, §4
# PKCβ1 = PKCβ1 (Homo sapiens, UniProt P05771)
# Procedure: as §1, §2, §3
# EGFR(T790M/L858R) = EGFR(T790M/L858R) (Homo sapiens, UniProt P00533, L858R/T790M)
# Procedure: as §1, §2, §3, §4
# Chain of CDK6/CycD3 (Q00534 whole entry): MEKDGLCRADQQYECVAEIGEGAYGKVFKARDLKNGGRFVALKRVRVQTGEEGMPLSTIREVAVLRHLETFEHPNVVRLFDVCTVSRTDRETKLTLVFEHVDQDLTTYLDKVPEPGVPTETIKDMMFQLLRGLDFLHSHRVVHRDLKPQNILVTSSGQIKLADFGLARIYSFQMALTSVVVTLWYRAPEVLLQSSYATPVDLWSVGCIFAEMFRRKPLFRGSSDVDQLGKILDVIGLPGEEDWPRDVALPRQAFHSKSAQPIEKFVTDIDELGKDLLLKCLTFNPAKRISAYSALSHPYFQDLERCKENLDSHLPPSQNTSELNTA
# Chain of CDK6/CycD3 (P30281 whole entry partner): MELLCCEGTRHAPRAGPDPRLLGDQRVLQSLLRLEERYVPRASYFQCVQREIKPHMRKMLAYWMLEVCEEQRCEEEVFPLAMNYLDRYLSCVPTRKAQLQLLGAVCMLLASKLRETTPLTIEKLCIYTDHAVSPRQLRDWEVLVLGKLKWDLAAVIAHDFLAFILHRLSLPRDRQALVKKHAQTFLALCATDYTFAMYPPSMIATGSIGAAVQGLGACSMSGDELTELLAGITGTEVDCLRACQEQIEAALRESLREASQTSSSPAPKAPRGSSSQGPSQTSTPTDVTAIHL
# Chain of MAP4K2 (Q12851 whole entry): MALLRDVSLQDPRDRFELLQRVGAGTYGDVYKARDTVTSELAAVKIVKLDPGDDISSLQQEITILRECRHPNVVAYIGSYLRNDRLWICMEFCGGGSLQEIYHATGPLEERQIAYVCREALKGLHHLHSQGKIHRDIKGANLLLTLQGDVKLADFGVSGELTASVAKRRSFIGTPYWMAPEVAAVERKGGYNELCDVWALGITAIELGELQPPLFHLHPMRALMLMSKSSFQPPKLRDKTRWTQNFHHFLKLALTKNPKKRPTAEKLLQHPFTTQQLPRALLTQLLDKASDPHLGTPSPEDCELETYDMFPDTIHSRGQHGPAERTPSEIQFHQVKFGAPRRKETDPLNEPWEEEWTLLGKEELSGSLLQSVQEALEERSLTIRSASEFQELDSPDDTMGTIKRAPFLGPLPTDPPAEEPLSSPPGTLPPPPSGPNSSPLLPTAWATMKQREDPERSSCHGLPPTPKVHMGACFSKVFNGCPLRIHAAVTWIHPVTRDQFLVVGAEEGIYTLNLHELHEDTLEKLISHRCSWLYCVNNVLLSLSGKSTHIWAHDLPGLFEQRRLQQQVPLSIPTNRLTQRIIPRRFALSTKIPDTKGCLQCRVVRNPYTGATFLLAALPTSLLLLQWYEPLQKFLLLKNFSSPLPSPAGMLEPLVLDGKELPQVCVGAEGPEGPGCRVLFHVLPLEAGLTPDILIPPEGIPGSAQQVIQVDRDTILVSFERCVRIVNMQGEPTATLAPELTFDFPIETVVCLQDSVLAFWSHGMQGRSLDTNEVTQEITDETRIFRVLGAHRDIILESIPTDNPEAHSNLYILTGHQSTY
structure (smiles),measurement,setting,value
CC[C@@]1(c2ccccc2)C2=C(CC(C)(C)CC2=O)Nc2n[nH]cc21 [BRD0705],% Inhibition at 10 μM,CDK6/CycD3; CDK6/CycD3,−0.5%
same,% Inhibition at 10 μM,LOK,9.6%
same,% Inhibition at 10 μM,DLK_Cascade,−1.1%
same,% Inhibition at 10 μM,MAP4K2,−0.7%
same,% Inhibition at 10 μM,PDGFRβ,0.3%
same,% Inhibition at 10 μM,PAK6,−10.7%
same,% Inhibition at 10 μM,MST2,−3.4%
same,% Inhibition at 10 μM,BLK,−3.4%
same,% Inhibition at 10 μM,CGK2,−7.3%
same,% Inhibition at 10 μM,PAK5,9.3%
same,% Inhibition at 10 μM,TXK,−1.7%
same,% Inhibition at 10 μM,CDK5/p25; CDK5/p25,52.0%
same,IC50,CDK5/p25; read-out: IC50 CDK5/p25,9.2 µM
same,% Inhibition at 10 μM,ROCK2,−5.8%
same,% Inhibition at 10 μM,DDR2,−1.4%
same,% Inhibition at 10 μM,ROS,31.3%
same,% Inhibition at 10 μM,MLK1_Cascade,6.3%
same,% Inhibition at 10 μM,RSK1,−6.4%
same,% Inhibition at 10 μM,PDK1,−6.7%
same,% Inhibition at 10 μM,KIT(V560G),−1.7%
same,% Inhibition at 10 μM,FLT4,−7.9%
same,% Inhibition at 10 μM,PKCη,−4.0%
same,% Inhibition at 10 μM,PIM3,1.2%
same,% Inhibition at 10 μM,MAP2K4_Cascade,−3.0%
same,% Inhibition at 10 μM,CRIK,−15.2%
same,% Inhibition at 10 μM,PAK1,−2.9%
same,% Inhibition at 10 μM,EGFR(d746-750),−12.0%
same,% Inhibition at 10 μM,SRM,−5.5%
same,% Inhibition at 10 μM,p38α,−8.5%
same,% Inhibition at 10 μM,MARK4,2.0%
same,% Inhibition at 10 μM,PDGFRα(T674I),0.5%
same,% Inhibition at 10 μM,LYNa,−0.4%
same,% Inhibition at 10 μM,JNK1,−3.9%
same,% Inhibition at 10 μM,JAK3,4.1%
same,% Inhibition at 10 μM,FGFR1,−2.7%
same,% Inhibition at 10 μM,MARK3,−5.3%
same,% Inhibition at 10 μM,NEK1,−9.6%
same,% Inhibition at 10 μM,CK1γ3,−2.1%
same,% Inhibition at 10 μM,SGK3,−1.8%
same,% Inhibition at 10 μM,PKCβ1,−6.5%
same,% Inhibition at 10 μM,EGFR(T790M/L858R),−4.0%
CC(C)(C)Cc1[nH]nc2c1[C@](C)(c1ccccc1)C1=C(CC(C)(C)CC1=O)N2 [BRD3731],IC50,CDK6/CycD3; CDK6/CycD3,> 10 µM
same,% Inhibition 10 μM,"CDK6/CycD3; CDK6/CycD3, 10 μM",28.3%
same,Fold Selectivity,CDK6/CycD3; IC50 CDK6/CycD3 / IC50 GSK3β,>370 fold
same,% Inhibition 10 μM,LOK; 10 μM,−1.0%
same,% Inhibition 10 μM,DLK_Cascade; 10 μM,0.9%
same,% Inhibition 10 μM,MAP4K2; 10 μM,−7.5%
same,% Inhibition 10 μM,PDGFRβ; 10 μM,3.1%
same,% Inhibition 10 μM,PAK6; 10 μM,−46.8%
same,% Inhibition 10 μM,MST2; 10 μM,1.5%
same,% Inhibition 10 μM,BLK; 10 μM,4.9%
same,% Inhibition 10 μM,CGK2; 10 μM,4.4%
same,% Inhibition 10 μM,PAK5; 10 μM,6.5%
same,% Inhibition 10 μM,TXK; 10 μM,1.3%
same,IC50,CDK5/p25; CDK5/p25,8.9 µM
same,% Inhibition 10 μM,"CDK5/p25; CDK5/p25, 10 μM",48.3%
same,Fold Selectivity,CDK5/p25; IC50 CDK5/p25 / IC50 GSK3β,331.0 fold
same,% Inhibition 10 μM,ROCK2; 10 μM,−0.5%
same,% Inhibition 10 μM,DDR2; 10 μM,7.9%
same,% Inhibition 10 μM,ROS; 10 μM,0.9%
same,% Inhibition 10 μM,MLK1_Cascade; 10 μM,−9.4%
same,% Inhibition 10 μM,RSK1; 10 μM,23.4%
same,% Inhibition 10 μM,PDK1; 10 μM,2.0%
same,% Inhibition 10 μM,KIT(V560G); 10 μM,1.4%
same,% Inhibition 10 μM,FLT4; 10 μM,16.8%
same,% Inhibition 10 μM,PKCη; 10 μM,−5.8%
same,% Inhibition 10 μM,PIM3; 10 μM,13.1%
same,% Inhibition 10 μM,MAP2K4_Cascade; 10 μM,7.6%
same,% Inhibition 10 μM,CRIK; 10 μM,−0.7%
same,% Inhibition 10 μM,PAK1; 10 μM,−18.6%
same,% Inhibition 10 μM,EGFR(d746-750); 10 μM,2.5%
same,% Inhibition 10 μM,SRM; 10 μM,0.9%
same,% Inhibition 10 μM,p38α; 10 μM,0.9%
same,% Inhibition 10 μM,MARK4; 10 μM,22.7%
same,% Inhibition 10 μM,PDGFRα(T674I); 10 μM,3.1%
same,% Inhibition 10 μM,LYNa; 10 μM,−0.3%
same,% Inhibition 10 μM,JNK1; 10 μM,−6.0%
same,% Inhibition 10 μM,JAK3; 10 μM,7.8%
same,% Inhibition 10 μM,FGFR1; 10 μM,2.3%
same,% Inhibition 10 μM,MARK3; 10 μM,−2.1%
same,% Inhibition 10 μM,NEK1; 10 μM,−0.1%
same,% Inhibition 10 μM,CK1γ3; 10 μM,−2.1%
same,% Inhibition 10 μM,SGK3; 10 μM,−5.2%
same,% Inhibition 10 μM,PKCβ1; 10 μM,4.1%
same,% Inhibition 10 μM,EGFR(T790M/L858R); 10 μM,−4.0%

# From patent US20160375006A1, “USES OF PARALOG-SELECTIVE INHIBITORS OF GSK3 KINASES” (priority 2012, published 2016)
